Where “and” joins values, the source holds several entries; their conditions need not be identical. Equal values may be shown once. Toxic doses and inconclusive results are not listed. Rule as the data show it: active = T/C of 150% or more; inactive = T/C below 125%.
Tested on: L1210 leukemia ip in BDF1 mice, survival T/C
Test: NCI In Vivo Anticancer Drug Screen. Data for tumor model L1210 Leukemia (intraperitoneal) in B6D2F1 (BDF1) mice
Details: endpoint: mean survival time, higher = longer survival
In short: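 Antitumor effect is assessed in tumor-bearing animals. Survival in the compound arm is compared with a vehicle-dosed control arm and expressed as their quotient.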

[1] = dose: 100.0 mg/kg/injection, schedule: Q04DX003 (ip), vehicle: saline
[2] = dose: 100.0 mg/kg/injection, schedule: Q04DX003 (ip), vehicle: Klucel (hydroxypropylcellulose) (HPC)
[3] = dose: 200.0 mg/kg/injection, schedule: Q04DX003 (ip), vehicle: Klucel (hydroxypropylcellulose) (HPC)
[4] = dose: 400.0 mg/kg/injection, schedule: Q04DX003 (ip), vehicle: Klucel (hydroxypropylcellulose) (HPC)
[5] = dose: 100.0 mg/kg/injection, schedule: Q01DX009 (ip), vehicle: Klucel (hydroxypropylcellulose) (HPC)
[6] = dose: 200.0 mg/kg/injection, schedule: Q01DX009 (ip), vehicle: Klucel (hydroxypropylcellulose) (HPC)
[7] = dose: 400.0 mg/kg/injection, schedule: Q01DX009 (ip), vehicle: Klucel (hydroxypropylcellulose) (HPC)
[8] = dose: 100.0 mg/kg/injection, schedule: Q04DX003 (ip), vehicle: saline with Tween-80
[9] = dose: 200.0 mg/kg/injection, schedule: Q04DX003 (ip), vehicle: saline with Tween-80
[10] = dose: 400.0 mg/kg/injection, schedule: Q04DX003 (ip), vehicle: saline with Tween-80
[11] = dose: 50.0 mg/kg/injection, schedule: Q01DX009 (ip), vehicle: Klucel (hydroxypropylcellulose) (HPC)
[12] = dose: 100.0 mg/kg/injection, schedule: Q01DX009 (ip), vehicle: saline with Tween-80
[13] = dose: 100.0 mg/kg/injection, schedule: Q04DX002 (ip), vehicle: saline with Tween-80
[14] = dose: 200.0 mg/kg/injection, schedule: Q04DX002 (ip), vehicle: saline with Tween-80
[15] = dose: 400.0 mg/kg/injection, schedule: Q04DX002 (ip), vehicle: saline with Tween-80

Measured: T/C

CN(C)NC(=O)NCCCl
inactive: [1] 106 % of control | dose: 200.0 mg/kg/injection, schedule: Q04DX003 (ip), vehicle: saline 105 % of control | dose: 400.0 mg/kg/injection, schedule: Q04DX003 (ip), vehicle: saline 108 % of control

CCOC(=O)CC(C(C)=O)P(=O)(OCC)OCC (stereo unspecified)
inactive: dose: 50.0 mg/kg/injection, schedule: Q01DX009 (ip), vehicle: saline + alcohol 96 % of control | dose: 100.0 mg/kg/injection, schedule: Q01DX009 (ip), vehicle: saline + alcohol 96 % of control | dose: 200.0 mg/kg/injection, schedule: Q01DX009 (ip), vehicle: saline + alcohol 92 % of control

CC(C)CS.[Pb]
inactive: dose: 100.0 mg/kg/injection, schedule: Q04DX002 (ip), vehicle: gum acacia 93 % of control | dose: 200.0 mg/kg/injection, schedule: Q04DX002 (ip), vehicle: gum acacia 93 % of control | dose: 400.0 mg/kg/injection, schedule: Q04DX002 (ip), vehicle: gum acacia 89 % of control

CCCCCCCCCCCCSCCSCCSCCCCCCCCCCCC
inactive: [2] 93 % of control | [3] 92 % of control | [4] 98 % of control

O=c1[nH]cnc2sc3c(c12)CCCC3
inactive: dose: 100.0 mg/kg/injection, schedule: Q01DX009 (ip), vehicle: saline sonified 94 % of control | dose: 100.0 mg/kg/injection, schedule: Q04DX003 (ip), vehicle: saline sonified 92 % of control | dose: 200.0 mg/kg/injection, schedule: Q01DX009 (ip), vehicle: saline sonified 116 % of control | dose: 200.0 mg/kg/injection, schedule: Q04DX003 (ip), vehicle: saline sonified 98 % of control | dose: 400.0 mg/kg/injection, schedule: Q01DX009 (ip), vehicle: saline sonified 100 % of control | dose: 400.0 mg/kg/injection, schedule: Q04DX003 (ip), vehicle: saline sonified 101 % of control

CC1(C)N=C(N)N=C(N)N1c1ccc(OCCCNC(=O)Nc2ccc(S(=O)(=O)F)cc2)c(Cl)c1
inactive: dose: 18.75 mg/kg/injection, schedule: Q04DX003 (ip), vehicle: saline with Tween-80 106 % of control | dose: 37.5 mg/kg/injection, schedule: Q04DX003 (ip), vehicle: saline with Tween-80 104 % of control | dose: 50.0 mg/kg/injection, schedule: Q01DX004 (ip), vehicle: saline 111 % of control | dose: 75.0 mg/kg/injection, schedule: Q04DX003 (ip), vehicle: saline with Tween-80 103 % of control | dose: 100.0 mg/kg/injection, schedule: Q01DX004 (ip), vehicle: saline 100 % of control

CC(C)(C)C(=O)Oc1ccc(C(C)(C)C)cc1
inactive: [5] 101 % of control | [2] 104 % of control | [6] 102 % of control | [3] 98 % of control | [7] 98 % of control | [4] 92 % of control

Cc1cc(O)c(O)c([N+](=O)[O-])c1
inactive: [8] 96 % of control | [9] 92 % of control | [10] 101 % of control

Cc1cc2c(c(=O)n1C)COC2=O
inactive: dose: 100.0 mg/kg/injection, schedule: Q04DX003 (ip), vehicle: other 100 % of control | dose: 200.0 mg/kg/injection, schedule: Q04DX003 (ip), vehicle: other 100 % of control | dose: 400.0 mg/kg/injection, schedule: Q04DX003 (ip), vehicle: other 98 % of control

Cc1nc(N)cc(=O)[nH]1
inactive: dose: 100.0 mg/kg/injection, schedule: Q01DX009 (ip), vehicle: water 112 % of control | dose: 100.0 mg/kg/injection, schedule: Q04DX003 (ip), vehicle: water 97 % of control | dose: 200.0 mg/kg/injection, schedule: Q01DX009 (ip), vehicle: water 104 % of control | dose: 200.0 mg/kg/injection, schedule: Q04DX003 (ip), vehicle: water 97 % of control | dose: 400.0 mg/kg/injection, schedule: Q04DX003 (ip), vehicle: water 97 % of control

O=C(/C=C(\Cl)c1ccc2c(c1)OCO2)OC/C=C\c1ccc2c(c1)OCO2
inactive: [11] 94 % of control | dose: 100.0 mg/kg/injection, schedule: Q01DX001 (ip), vehicle: Klucel (hydroxypropylcellulose) (HPC) 93 % of control | [5] 92 % of control | dose: 200.0 mg/kg/injection, schedule: Q01DX001 (ip), vehicle: Klucel (hydroxypropylcellulose) (HPC) 88 % of control | [6] 92 % of control

CC(C)NC(=O)Oc1cccc(NC(=O)C(C)C)c1
inactive: dose: 25.0 mg/kg/injection, schedule: Q04DX003 (ip), vehicle: saline with Tween-80 101 % of control | dose: 50.0 mg/kg/injection, schedule: Q04DX003 (ip), vehicle: saline with Tween-80 92 % of control | [8] 92 % of control and 95 % of control | [10] 89 % of control

c1ccc(NC2=NCCCN2)cc1
inactive: dose: 12.5 mg/kg/injection, schedule: Q01DX001 (ip), vehicle: saline with Tween-80 102 % of control | dose: 25.0 mg/kg/injection, schedule: Q01DX001 (ip), vehicle: saline with Tween-80 97 % of control | dose: 50.0 mg/kg/injection, schedule: Q01DX001 (ip), vehicle: saline with Tween-80 91 % of control

Cc1cccc(SC(=O)SC(C)CN)c1 (stereo unspecified)
inactive: dose: 25.0 mg/kg/injection, schedule: Q04DX002 (ip), vehicle: saline 99 % of control | dose: 50.0 mg/kg/injection, schedule: Q04DX002 (ip), vehicle: saline 105 % of control | dose: 100.0 mg/kg/injection, schedule: Q04DX002 (ip), vehicle: saline 94 % of control and 99 % of control

O=C1c2ccccc2C(=O)c2c(Nc3ccc(CCO)cc3)ccc(O)c21
inactive: [5] 103 % of control | [2] 102 % of control | [6] 97 % of control | [3] 100 % of control | [7] 101 % of control | [4] 102 % of control

Br/C=C(\Br)C[N+]12CN3CN(CN(C3)C1)C2
inactive: [12] 96 % of control | [8] 100 % of control | [9] 114 % of control | [10] 101 % of control

COc1cc(CCCc2cccc(O)c(=O)c2)cc(OC)c1OC
inactive: [13] 91 % of control and 103 % of control | [14] 105 % of control and 89 % of control | [15] 108 % of control and 116 % of control

CC(=O)OCC1OC(Oc2ccccc2)C(OC(C)=O)C(OC(C)=O)C(OC(C)=O)C1OC(C)=O (stereo unspecified)
inactive: [11] 104 % of control | [5] 96 % of control | [6] 96 % of control

CCc1ccc(/C(C#N)=C/C=C/c2ccccc2)cc1
inactive: dose: 100.0 mg/kg/injection, schedule: Q04DX002 (ip), vehicle: Klucel (hydroxypropylcellulose) (HPC) 112 % of control | dose: 200.0 mg/kg/injection, schedule: Q04DX002 (ip), vehicle: Klucel (hydroxypropylcellulose) (HPC) 102 % of control | dose: 400.0 mg/kg/injection, schedule: Q04DX002 (ip), vehicle: Klucel (hydroxypropylcellulose) (HPC) 97 % of control

OCCN1CCN(Cc2cccc3ccccc23)CC1
inactive: dose: 25.0 mg/kg/injection, schedule: Q01DX009 (ip), vehicle: saline 112 % of control | dose: 25.0 mg/kg/injection, schedule: Q04DX003 (ip), vehicle: saline 101 % of control | dose: 50.0 mg/kg/injection, schedule: Q01DX009 (ip), vehicle: saline 98 % of control | dose: 50.0 mg/kg/injection, schedule: Q04DX003 (ip), vehicle: saline 102 % of control | dose: 100.0 mg/kg/injection, schedule: Q01DX001 (ip), vehicle: saline 103 % of control | dose: 100.0 mg/kg/injection, schedule: Q01DX009 (ip), vehicle: saline 102 % of control | [1] 98 % of control

CCNC1CCCCC1
inactive: dose: 50.0 mg/kg/injection, schedule: Q01DX009 (ip), vehicle: saline with Tween-80 104 % of control | [12] 107 % of control

CCCCCCCCCCN(CCCCCCCCCC)S(=O)(=O)c1ccc(OC)c([N+](=O)[O-])c1
inactive: dose: 75.0 mg/kg/injection, schedule: Q01DX001 (ip), vehicle: other 100 % of control | dose: 150.0 mg/kg/injection, schedule: Q01DX001 (ip), vehicle: other 93 % of control | dose: 300.0 mg/kg/injection, schedule: Q01DX001 (ip), vehicle: other 90 % of control

COC(=O)COc1cc(Cl)c(Cl)cc1Cl
inactive: [13] 95 % of control | [14] 95 % of control

COC(=O)c1ccccc1N=NNc1ccc(C)c(Cl)c1
inactive: [13] 94 % of control | [14] 94 % of control | [15] 87 % of control

— PubChem BioAssay AID248 (DTP/NCI, 2004)
